Test results taken from patent US20090169526A1, “BMP-6 ESTROGEN RESPONSIVE ELEMENT AND METHODS OF USE THEREOF” (Wyeth, priority 2004, published 2009).
“Also recorded” adds a separate entry of the source. *1 amine or outer side, *2 acyl side, *3 side chain or, on linkers, in order; H or OH if unused. Where a SMILES comes first, the peptide text is derived from it. Bridges are numbered along the chain shown (N, C = ends). Roman numbers before positions name the chains, in order. [ ]: non-standard residue; d: D form. Actinocin(9to1) = Cc1c2oc3c(C)ccc(C(=O)[*:1])c3nc-2c(C(=O)[*:2])c(N)c1=O; NMeV = CN[C@H](C(=O)O)C(C)C; Sar = CNCC(=O)O

Columns and labels:
hBMP-6 mRNA [1] = test: Real-time PCR of hBMP-6 mRNA with or without Actinomycin D; type: cell-based, human; conditions: for hBMP-6 mRNA expression: treated with E2, p<0.05
From the text: In order to determine whether estrogen regulates hBMP-6 at the level of transcription, we conducted Real-time PCR assays measuring hBMP-6 mRNA expression in cells pulse-chase treated with or without Actinomycin D, which inhibits […] (FIG. 8).

ERβ [2] = biological target: T1, ERβ (Homo sapiens, UniProt Q92731); test: ERE-tk-luciferase reporter in hMSCs infected with adeno-ERβ; type: cell-based; set-up: expressed in transfected cells; host or cells: human mesenchymal stem cells (hMSCs), adenoviral transduction with Ad5-CMV-ERβ (long form; gift of Women Health Institute, Wyeth); conditions: hMSCs infected with adeno-ERE-tk-luc, adeno-ERβ and adeno-LacZ; 10^−8 M E2, 24 hours; over vehicle control
T1 sequence (Q92731 whole entry): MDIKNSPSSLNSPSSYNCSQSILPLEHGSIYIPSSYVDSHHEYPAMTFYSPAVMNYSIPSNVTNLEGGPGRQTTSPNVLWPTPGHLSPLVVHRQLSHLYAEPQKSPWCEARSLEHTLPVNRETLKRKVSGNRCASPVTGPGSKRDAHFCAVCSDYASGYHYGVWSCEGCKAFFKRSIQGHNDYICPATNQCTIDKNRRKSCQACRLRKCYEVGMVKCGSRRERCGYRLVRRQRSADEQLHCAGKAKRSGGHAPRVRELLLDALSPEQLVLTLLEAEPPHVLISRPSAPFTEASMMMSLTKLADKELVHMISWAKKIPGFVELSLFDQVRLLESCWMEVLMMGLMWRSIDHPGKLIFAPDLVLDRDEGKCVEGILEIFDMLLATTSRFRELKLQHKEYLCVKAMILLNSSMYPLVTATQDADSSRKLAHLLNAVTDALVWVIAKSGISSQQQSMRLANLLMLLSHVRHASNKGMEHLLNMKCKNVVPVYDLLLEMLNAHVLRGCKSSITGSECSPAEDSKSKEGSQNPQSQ

ERβ [3] = biological target: T1, ERβ; test: ERE-tk-Luc reporter in C3H10T1/2 cells co-transfected with ERβ; type: cell-based; set-up: expressed in transfected cells; conditions: mouse C3H10T1/2 cells co-transfected with ERβ; 10^−8 M E2, 24 hours
hBMP-6 promoter = test: hBMP-6 promoter-Luc reporter in C3H10T1/2 cells; type: cell-based, mouse; conditions: 10^−8 M E2, 24 hours
estrogen receptors (Ers) = conditions: hMSCs with ERE-tk-luciferase construct and adeno-lacZ construct; five donors
Method: (§1) hMSCs were infected in vitro at 80% confluence with Ad5-CMV-ERα, Ad5-CMV-ERβ and Ad5-CMV-LacZ at 100 pfu/cell, for 1 hour in serum-free DMEM after which DMEM supplemented with 10% FCS was added, as previously described (Bodine et al., 1997 and 1999). Efficiency of infection was estimated via β-gal activity determination, utilizing the Galacto-Light Chemiluminescent Reporter Assay System Kit (Tropix of PE Biosystems, USA). […] Five experiments, each in triplicate were conducted, standard error is represented.

hBMP-6 mRNA [4] = test: Real Time RT-PCR of hBMP-6 mRNA in engineered hMSCs; type: cell-based, human; conditions: 10^−7 M E2, 24 hours
Method: as §1

hBMP-6 mRNA [5] = test: RT-PCR of hBMP-6 mRNA in engineered hMSCs (qualitative); type: cell-based, human; conditions: E2 10^−7 M, 24 hours
Method: H MSCs were infected with 100 pfu/cell adeno-LacZ, adeno-ER-α or adeno-ER-β.
RNA was isolated utilizing the TRIzol Reagent (Life Technologies, USA), according to manufacturer's protocol. RT-PCR was performed as described previously (Zhou et al., 2001). Forward and reverse primers for human ERα were: 5′-[…]-3′ (SEQ ID NO:6) and 5′-[…]-3′ (SEQ ID NO:7), respectively, and were designed according to the human ERα sequence (Green et al., 1986). Forward and reverse primers for human ERβ were: 5′-[…]-3′ (SEQ ID NO:8), and 5′-[…]-3′ (SEQ ID NO:9), respectively, designed according to human ERβ sequence (Moore et al., 1998). Primers for the hBMP-6 (458 bp) (Rickard et al., 1998), and internal control RPL19 (190 bp) (Orly et al., 1994) sequences were as described previously.
PCR conditions used for hERα and hERβ amplification were as follows: 30 cycles at 94° C. for 1 minute, 60° C. for 1 minute and 72° C. for 2 minute. Conditions used for hBMP-6 reverse transcription and PCR amplification were: incubation with RT, followed by 30 cycles of 94° C. for 1 minute, 55° C. for 1 minute and 72° C. for 2 minute in an MJ MiniCycler (MJ Research, USA). RT-PCR products of hBMP-6 were cloned into pGEM-T Easy vector (A1360, Promega), which following sequencing confirmed that the RT-PCR product was the hBMP-6 sequence.

increase in luciferase activity (ERβ [2]) [fold]	ERE-tk-Luc luminescence (ERβ [3])	luciferase activity following E2 treatment (estrogen receptors (Ers))	SMILES	effect of Actinomycin D on up-regulation of hBMP-6 mRNA by E2 (hBMP-6 mRNA [1]; hMSCs engineered with ERα or ERβ, pulse-chase treated)	hBMP-6 promoter-Luc luminescence (hBMP-6 promoter; mouse C3H10T1/2 cells co-transfected with ERα)	hBMP-6 promoter-Luc luminescence (hBMP-6 promoter; mouse C3H10T1/2 cells co-transfected with ERβ)	increase in hBMP-6 mRNA expression (hBMP-6 mRNA [4]; hMSCs infected with Adeno-ERα 100 pfu/cell) [fold]	increase in hBMP-6 mRNA expression (hBMP-6 mRNA [4]; hMSCs infected with Adeno-ERβ 100 pfu/cell) [fold]	stimulation of hBMP-6 mRNA expression (hBMP-6 mRNA [4]; hMSCs infected with Adeno-LacZ)	hBMP-6 mRNA detection by RT-PCR (hBMP-6 mRNA [5]; hMSCs transduced with adeno-ERα 100 pfu/cell)	hBMP-6 mRNA detection by RT-PCR (hBMP-6 mRNA [5]; hMSCs transduced with adeno-ERβ 100 pfu/cell)	hBMP-6 mRNA detection by RT-PCR (hBMP-6 mRNA [5]; hMSCs transduced with adeno-LacZ 100 pfu/cell)	hBMP-6 mRNA expression (hBMP-6 mRNA [1]; cells transfected with ERα)	hBMP-6 mRNA expression (hBMP-6 mRNA [1]; cells transfected with ERβ)
–	–	–	Cc1c2oc3c(C)ccc(C(=O)N[C@@H]4C(=O)N[C@H](C(C)C)C(=O)N5CCC[C@H]5C(=O)N(C)CC(=O)N(C)[C@@H](C(C)C)C(=O)O[C@@H]4C)c3nc-2c(C(=O)N[C@@H]2C(=O)N[C@H](C(C)C)C(=O)N3CCC[C@H]3C(=O)N(C)CC(=O)N(C)[C@@H](C(C)C)C(=O)O[C@@H]2C)c(N)c1=O [Actinomycin D] (I: T[dV]P[Sar][NMeV] / II: T[dV]P[Sar][NMeV]; ester I:1-I:C, II:1-II:C; linker I:N-II:N via Actinocin(9to1))	no statistical difference; also recorded: does not block	–	–	–	–	–	–	–	–	–	–
6	significant luminescence	failed to produce luciferase activity	C[C@]12CC[C@@H]3c4ccc(O)cc4CC[C@H]3[C@@H]1CC[C@@H]2O [E2, 17β-estradiol]	–	did not result in enhanced luminescence over background levels	did not result in enhanced luminescence over background levels	3.2	2.0	not	qualitatively detectable levels	qualitatively detectable levels	did not	significantly increased	significantly increased
